In PubChem BioAssay (NCI) one finds TGI and GI50 data, which are given here for 15 compounds.

Each structure is given as a SMILES string.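 Dose response: 5 concentrations. Exposure: 48 h. Format: 96-well plates. Endpoint: linear interpolation; highest concentration if not reached. GI50 is the concentration that inhibits growth by half. TGI denotes the concentration required for complete inhibition of growth.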

Some test systems named below: EKVX NSCLC; NCI-H226 lung; OVCAR-8 ovarian; CAKI-1 renal; SF-268 CNS; SK-MEL-5 melanoma; LOX IMVI melanoma; HL-60(TB) leukemia; OVCAR-5 ovarian; NCI-H522 lung.
Common to all, as to assay: NCI tumour cell line growth inhibition, 48 h

Regarding `CC(C)/C(Cl)=N\OC(NC(=O)P(=O)(c1ccccc1)c1ccccc1)(C(F)(F)F)C(F)(F)F`, the TGI came to 63.2 µM in the experiment on EKVX NSCLC; 38.4 µM in the experiment on NCI-H226 lung; 32 µM in the experiment with OVCAR-8 ovarian; 46.3 µM with CAKI-1 renal; 31.9 µM with SF-268 CNS; 26.7 µM in the experiment on SK-MEL-5 melanoma. The figures for the TGI with LOX IMVI melanoma, with HL-60(TB) leukemia and in the experiment with OVCAR-5 ovarian were 29.6 µM, 30.9 µM and 48.3 µM, respectively.
For `O=[N+]([O-])c1cccc(N=Nc2c(O)c(S(=O)(=O)O)cc3cc(S(=O)(=O)O)ccc23)c1`, the TGI in the experiment on EKVX NSCLC, in the experiment with NCI-H226 lung, in the experiment on OVCAR-8 ovarian, in the experiment with CAKI-1 renal, in the experiment with SF-268 CNS and with SK-MEL-5 melanoma was greater than 100 µM each time. The TGI in the experiment with HL-60(TB) leukemia, in the experiment with NCI-H522 lung and with OVCAR-5 ovarian was greater than 100 µM throughout.
On to `O=C(N/N=C/C=C/c1ccccc1)c1ccccc1Nc1ccccc1C(=O)N/N=C/C=C/c1ccccc1`, for which the TGI in the experiment with EKVX NSCLC, in the experiment on NCI-H226 lung, in the experiment with OVCAR-8 ovarian, in the experiment with CAKI-1 renal, in the experiment on SF-268 CNS and in the experiment with SK-MEL-5 melanoma was greater than 100 µM each time. In addition, the TGI in the experiment on HL-60(TB) leukemia and in the experiment on OVCAR-5 ovarian was greater than 100 µM in each case.
For the compound `C#CCn1c(=O)c(C)cn(/C(=C\C(=O)OCC)C(=O)OCC)c1=O`, the TGI with EKVX NSCLC was 30.1 µM; with NCI-H226 lung, 36.1 µM; in the experiment on OVCAR-8 ovarian it was 13.2 µM; with CAKI-1 renal it was 2.86 µM; with SF-268 CNS, 35.7 µM; with SK-MEL-5 melanoma, greater than 100 µM. The results for the TGI in the experiment on LOX IMVI melanoma, with HL-60(TB) leukemia and in the experiment on OVCAR-5 ovarian were greater than 50.2 µM, greater than 100 µM and 23.9 µM, respectively.
For the compound `COc1ccc(OC)c(SC(CC(=O)c2ccccc2)c2ccccc2)c1` (stereo not given), the TGI in the experiment with EKVX NSCLC amounted to 31.1 µM; with NCI-H226 lung, 31.9 µM; in the experiment on OVCAR-8 ovarian, 28.7 µM; in the experiment on CAKI-1 renal, 28.5 µM; with SF-268 CNS, 40.2 µM; in the experiment on SK-MEL-5 melanoma, 28.7 µM. Moreover, the TGI in the experiment on HL-60(TB) leukemia is greater than 100 µM; in the experiment on NCI-H522 lung it was 29.2 µM; in the experiment on OVCAR-5 ovarian, 33.5 µM.
With `C=CCP(=O)(CC=C)C(Cl)Cl`, the TGI in the experiment with NCI-H226 lung, in the experiment with OVCAR-8 ovarian, in the experiment with CAKI-1 renal, with SK-MEL-5 melanoma, in the experiment on LOX IMVI melanoma and in the experiment on HL-60(TB) leukemia was greater than 100 µM in each case. In addition, the TGI in the experiment on NCI-H522 lung and with OVCAR-5 ovarian was greater than 100 µM throughout.
For the compound `COc1cccc(C=O)c1[O-].[O]=[U](=[O])([OH2+])[OH2+]`, the TGI in the experiment on EKVX NSCLC was greater than 100 µM; in the experiment with NCI-H226 lung, greater than 100 µM; in the experiment on OVCAR-8 ovarian, 56.2 µM; in the experiment with CAKI-1 renal, greater than 100 µM; with SF-268 CNS, greater than 100 µM; with SK-MEL-5 melanoma, greater than 100 µM. Besides, the TGI with LOX IMVI melanoma, with NCI-H522 lung and in the experiment with OVCAR-5 ovarian was greater than 100 µM throughout. Besides, in the experiment with CAKI-1 renal, the GI50 was greater than 100 µM.
As for `c1ccc(/C(=N/Nc2ccncn2)c2ccccn2)cc1`, the TGI in the experiment on EKVX NSCLC is 50.3 µM; with NCI-H226 lung, 96.2 µM; in the experiment on OVCAR-8 ovarian, 50.2 µM; in the experiment with CAKI-1 renal, greater than 100 µM; in the experiment with SF-268 CNS it was 50.9 µM; with SK-MEL-5 melanoma it was greater than 100 µM. Besides, the TGI in the experiment on NCI-H522 lung is 4.14 µM; with OVCAR-5 ovarian it was greater than 100 µM.
On to `COC[C@@H](N=Cc1ccc([N+](=O)[O-])cc1)C(C)C`, for which the TGI in the experiment with EKVX NSCLC, in the experiment on OVCAR-8 ovarian, in the experiment on CAKI-1 renal, in the experiment on SF-268 CNS, in the experiment with LOX IMVI melanoma and in the experiment with NCI-H522 lung was greater than 100 µM each time. This compound also came in with a TGI with OVCAR-5 ovarian greater than 100 µM.
Consider `CC(C)(C)OC(=O)NCC(CNC(=O)OC(C)(C)C)c1nc(C(N)=O)cs1`, for which the TGI in the experiment with EKVX NSCLC, in the experiment with NCI-H226 lung, with OVCAR-8 ovarian, in the experiment on CAKI-1 renal, in the experiment with SK-MEL-5 melanoma and with LOX IMVI melanoma was greater than 100 µM in each case. For the same compound, the TGI with HL-60(TB) leukemia and in the experiment with OVCAR-5 ovarian was greater than 100 µM in each case.
As for `O=C1NC(=O)C(C(CC(=O)c2ccc(Cl)cc2)c2ccc(Cl)cc2)C(=O)N1` (stereo not given), the TGI in the experiment with EKVX NSCLC, with NCI-H226 lung, with OVCAR-8 ovarian, with SF-268 CNS, in the experiment on SK-MEL-5 melanoma and in the experiment on LOX IMVI melanoma was greater than 100 µM in each case. The TGI in the experiment with HL-60(TB) leukemia, with NCI-H522 lung and in the experiment on OVCAR-5 ovarian was greater than 100 µM in each case.
Consider `Cc1nn(-c2ccccc2)c(C)c1/C=N/N=C1\S/C(=C\c2ccc(Cl)cc2)C(=O)N1c1ccccc1`, for which the TGI with EKVX NSCLC, in the experiment on NCI-H226 lung, in the experiment with OVCAR-8 ovarian, in the experiment with CAKI-1 renal, in the experiment on SF-268 CNS and with SK-MEL-5 melanoma was greater than 100 µM each time. Also, the TGI with LOX IMVI melanoma is greater than 100 µM; with HL-60(TB) leukemia, 24.4 µM; with OVCAR-5 ovarian, greater than 100 µM.
For `Cc1ccc(S(=O)CC(CF)OCn2cc(C)c(=O)[nH]c2=O)cc1` (stereo not given), the TGI with NCI-H226 lung, in the experiment on OVCAR-8 ovarian, in the experiment on CAKI-1 renal, in the experiment with SF-268 CNS, with SK-MEL-5 melanoma and in the experiment with LOX IMVI melanoma was greater than 100 µM each time. Moreover, the TGI in the experiment with HL-60(TB) leukemia, with NCI-H522 lung and in the experiment on OVCAR-5 ovarian was greater than 100 µM throughout.
Turning to `CCCCCCCCCCCCCCCCCCNc1nc(=O)n(C2CC(O)C(COP(=O)(O)O)O2)cc1F` (stereo not given), the TGI in the experiment with EKVX NSCLC, in the experiment on NCI-H226 lung, in the experiment with OVCAR-8 ovarian, with CAKI-1 renal, in the experiment on SF-268 CNS and in the experiment on SK-MEL-5 melanoma was greater than 100 µM each time. In addition, the TGI in the experiment on LOX IMVI melanoma, in the experiment on NCI-H522 lung and with OVCAR-5 ovarian was greater than 100 µM throughout.
As to `NCC(O)CSCc1ccc(Cl)cc1` (stereo not given), the TGI in the experiment with NCI-H226 lung, with OVCAR-8 ovarian, in the experiment with CAKI-1 renal, in the experiment on SF-268 CNS, in the experiment with SK-MEL-5 melanoma and in the experiment with LOX IMVI melanoma was greater than 100 µM each time. Also, the TGI in the experiment on HL-60(TB) leukemia, with NCI-H522 lung and in the experiment on OVCAR-5 ovarian was greater than 100 µM throughout.
